What follows are molecules tested against T1, Recombinant human His-tagged Trim24-PHD-bromodomain (Homo sapiens, UniProt O15164) (assay: Trim24 AlphaScreen Assay). Settings: 5 nM Trim24 protein, 15 nM biotinylated H3K23ac (1-33aa) peptide.
T1 construct: Recombinant human His-tagged Trim24-PHD-bromodomain (produced in-house); made in house
T1 sequence (O15164 824-1006 limits assumed): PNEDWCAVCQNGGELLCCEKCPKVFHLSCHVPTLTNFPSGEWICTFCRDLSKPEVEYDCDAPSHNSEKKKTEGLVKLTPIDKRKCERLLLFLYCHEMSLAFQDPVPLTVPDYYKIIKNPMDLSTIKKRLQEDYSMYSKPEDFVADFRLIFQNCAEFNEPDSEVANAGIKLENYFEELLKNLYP
Assay type: binding
How it was run: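 AlphaScreen read-out after 2 h with streptavidin donor and Ni-chelate acceptor beads at 10 ug/mL each, following 1 h room-temperature incubation of compound, His-tagged PHD-bromodomain protein and biotin-H3K23ac (1-33aa) peptide in Hepes pH 7.5 buffer with NaCl and Triton X-100. Signals normalised between no-compound and no-protein wells; IC50 from four-parameter logistic curves.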

Row | SMILES | IC50 [µM]
1 | Cc1nc(S(=O)(=O)Nc2cc3c(cc2Oc2cccc(OCc4ccccc4)c2)n(C)c(=O)n3C)cn1C [Example 26, N-(6-(3-(benzyloxy)phenoxy)-1,3-dimethyl-2-oxo-2,3-dihydro-1H-benzo[d]imidazol-5-yl)-1,2-dimethyl-1H-imidazole-4-sulfonamide] | 0.1 to 1
2 | CCCOc1cc(OCCCOC)cc(Oc2cc3c(cc2NS(=O)(=O)c2cccc(F)c2)n(C)c(=O)n3C)c1 [Example 156, 3-fluoro-N-(6-(3-(3-methoxypropoxy)-5-propoxyphenoxy)-1,3-dimethyl-2-oxo-2,3-dihydro-1H-benzo[d]imidazol-5-yl)benzenesulfonamide] | 0.1 to 1
3 | CCCOc1cc(OCCCOC)cc(Oc2cc3c(cc2NS(=O)(=O)c2cccc(C)c2)n(C)c(=O)n3C)c1 [Example 155, N-(6-(3-(3-methoxypropoxy)-5-propoxyphenoxy)-1,3-dimethyl-2-oxo-2,3-dihydro-1H-benzo[d]imidazol-5-yl)-3-methylbenzenesulfonamide] | 0.1 to 1
4 | Cn1cnc(S(=O)(=O)Nc2cc3c(cc2Oc2cccc(OCC4CCOC4)c2)n(C)c(=O)n3C)c1 (stereo not shown) [Example 64, N-(1,3-dimethyl-2-oxo-6-(3-((tetrahydrofuran-3-yl)methoxy)phenoxy)-2,3-dihydro-1H-benzo[d]imidazol-5-yl)-1-methyl-1H-imidazole-4-sulfonamide] | 0.1 to 1
5 | COc1ccc(S(=O)(=O)Nc2cc3c(cc2Oc2cc(OCCCCCCN)cc(OCC(F)(F)F)c2)n(C)c(=O)n3C)cn1 [Example 203, N-(6-(3-((6-aminohexyl)oxy)-5-(2,2,2-trifluoroethoxy)phenoxy)-1,3-dimethyl-2-oxo-2,3-dihydro-1H-benzo[d]imidazol-5-yl)-6-methoxypyridine-3-sulfonamide] | 0.01 to 0.1
6 | CCCOc1cccc(Oc2cc3c(cc2NS(=O)(=O)c2cccc4c2OCCO4)n(C)c(=O)n3C)c1 [Example 172, N-(1,3-dimethyl-2-oxo-6-(3-propoxyphenoxy)-2,3-dihydro-1H-benzo[d]imidazol-5-yl)-2,3-dihydrobenzo[b][1,4]dioxine-5-sulfonamide] | 0.1 to 1
7 | Cn1cnc(S(=O)(=O)Nc2cc3c(cc2Oc2cc(OCC4CC4)cc(OCC4CC4)c2)n(C)c(=O)n3C)c1 [Example 117, N-(6-(3,5-bis(cyclopropylmethoxy)phenoxy)-1,3-dimethyl-2-oxo-2,3-dihydro-1H-benzo[d]imidazol-5-yl)-1-methyl-1H-imidazole-4-sulfonamide] | 0.01 to 0.1
8 | CCCOc1cc(OCCCCN)cc(Oc2cc3c(cc2NS(=O)(=O)c2cn(C)cn2)n(C)c(=O)n3C)c1 [Example 186, N-(6-(3-(4-aminobutoxy)-5-propoxyphenoxy)-1,3-dimethyl-2-oxo-2,3-dihydro-1H-benzo[d]imidazol-5-yl)-1-methyl-1H-imidazole-4-sulfonamide] | 0.001 to 0.01
9 | Cc1nc(S(=O)(=O)Nc2cc3c(cc2Oc2cccc(OCCC(C)C)c2)n(C)c(=O)n3C)cn1C [Example 4, N-(6-(3-(isopentyloxy)phenoxy)-1,3-dimethyl-2-oxo-2,3-dihydro-1H-benzo[d]imidazol-5-yl)-1,2-dimethyl-1H-imidazole-4-sulfonamide] | 0.1 to 1
10 | COc1ccc(S(=O)(=O)Nc2cc3c(cc2Oc2cc(OCCCCN(C)C)cc(OCC(F)(F)F)c2)n(C)c(=O)n3C)cc1OC [Example 211, N-(6-(3-(4-(dimethylamino)butoxy)-5-(2,2,2-trifluoroethoxy)phenoxy)-1,3-dimethyl-2-oxo-2,3-dihydro-1H-benzo[d]imidazol-5-yl)-3,4-dimethoxybenzenesulfonamide] | 0.001 to 0.01
11 | C=CCOc1cccc(S(=O)(=O)Nc2cc3c(cc2Oc2cccc(OCC(F)(F)F)c2)n(C)c(=O)n3C)c1 [Example 193, 3-(allyloxy)-N-(1,3-dimethyl-2-oxo-6-(3-(2,2,2-trifluoroethoxy)phenoxy)-2,3-dihydro-1H-benzo[d]imidazol-5-yl)benzenesulfonamide] | 0.1 to 1
12 | COCCCOc1cc(OCC(F)(F)F)cc(Oc2cc3c(cc2NS(=O)(=O)c2cn(C)c(C)n2)n(C)c(=O)n3C)c1 [Example 141, N-(6-(3-(3-methoxypropoxy)-5-(2,2,2-trifluoroethoxy)phenoxy)-1,3-dimethyl-2-oxo-2,3-dihydro-1H-benzo[d]imidazol-5-yl)-1,2-dimethyl-1H-imidazole-4-sulfonamide] | 0.01 to 0.1
13 | CCCOc1cc(C#N)cc(Oc2cc3c(cc2NS(=O)(=O)c2cn(C)c(C)n2)n(C)c(=O)n3C)c1 [Example 107, N-(6-(3-cyano-5-propoxyphenoxy)-1,3-dimethyl-2-oxo-2,3-dihydro-1H-benzo[d]imidazol-5-yl)-1,2-dimethyl-1H-imidazole-4-sulfonamide] | 0.01 to 0.1
14 | CCCOc1cc(OCCCOC)cc(Oc2cc3c(cc2NS(=O)(=O)c2cccnc2)n(C)c(=O)n3C)c1 [Example 137, N-(6-(3-(3-methoxypropoxy)-5-propoxyphenoxy)-1,3-dimethyl-2-oxo-2,3-dihydro-1H-benzo[d]imidazol-5-yl)pyridine-3-sulfonamide] | 0.01 to 0.1
15 | COCCCOc1cc(OCC(F)(F)F)cc(Oc2cc3c(cc2NS(=O)(=O)c2cnn(C)c2C)n(C)c(=O)n3C)c1 [Example 204, N-(6-(3-(3-methoxypropoxy)-5-(2,2,2-trifluoroethoxy)phenoxy)-1,3-dimethyl-2-oxo-2,3-dihydro-1H-benzo[d]imidazol-5-yl)-1,5-dimethyl-1H-pyrazole-4-sulfonamide] | 0.01 to 0.1
16 | CCCOc1cc(OCCCN)cc(Oc2cc3c(cc2NS(=O)(=O)c2ccc(OC)c(OC)c2)n(C)c(=O)n3C)c1 [Example 216, N-(6-(3-(3-aminopropoxy)-5-propoxyphenoxy)-1,3-dimethyl-2-oxo-2,3-dihydro-1H-benzo[d]imidazol-5-yl)-3,4-dimethoxybenzenesulfonamide] | 0.01 to 0.1
17 | COc1ccc(S(=O)(=O)Nc2cc3c(cc2Oc2cccc(OCc4ccccc4)c2)n(C)c(=O)n3C)cc1 [Example 17, N-(6-(3-(benzyloxy)phenoxy)-1,3-dimethyl-2-oxo-2,3-dihydro-1H-benzo[d]imidazol-5-yl)-4-methoxybenzenesulfonamide] | 0.1 to 1
18 | Cn1c(=O)n(C)c2cc(Oc3cccc(OCc4ccccc4)c3)c(NS(=O)(=O)C3CC3)cc21 [Example 12, N-(6-(3-(benzyloxy)phenoxy)-1,3-dimethyl-2-oxo-2,3-dihydro-1H-benzo[d]imidazol-5-yl)cyclopropanesulfonamide] | > 1
19 | CCCOc1cccc(Oc2cc3c(cc2NS(=O)(=O)c2cccc(C(=O)O)c2)n(C)c(=O)n3C)c1 [Example 208, 3-(N-(1,3-dimethyl-2-oxo-6-(3-propoxyphenxoy)-2,3-dihydro-1H-benzo[d]imidazol-5-yl)sulfamoyl)benzoic acid] | 0.01 to 0.1
20 | Cc1cccc(S(=O)(=O)Nc2cc3c(cc2Oc2cccc(OCc4ccccc4)c2)n(C)c(=O)n3C)c1 [Example 34, N-(6-(3-(benzyloxy)phenoxy)-1,3-dimethyl-2-oxo-2,3-dihydro-1H-benzo[d]imidazol-5-yl)-3-methylbenzenesulfonamide] | 0.1 to 1
21 | C=CCOc1cccc(Oc2cc3c(cc2NS(=O)(=O)c2cn(C)cn2)n(C)c(=O)n3C)c1 [Example 74, N-(6-(3-(allyloxy)phenoxy)-1,3-dimethyl-2-oxo-2,3-dihydro-1H-benzo[d]imidazol-5-yl)-1-methyl-1H-imidazole-4-sulfonamide] | 0.1 to 1
22 | CCCOc1cccc(Oc2cc3c(cc2NS(=O)(=O)c2cccc(N(C)C)c2)n(C)c(=O)n3C)c1 [Example 173, N-(1,3-dimethyl-2-oxo-6-(3-propoxyphenoxy)-2,3-dihydro-1H-benzo[d]imidazol-5-yl)-3-(dimethylamino)benzenesulfonamide] | 0.1 to 1
23 | CCc1cc(OCC(C)C)cc(Oc2cc3c(cc2NS(=O)(=O)c2cn(C)cn2)n(C)c(=O)n3C)c1 [Example 226, N-(6-(3-ethyl-5-isobutoxyphenoxy)-1,3-dimethyl-2-oxo-2,3-dihydro-1H-benzo[d]imidazol-5-yl)-1-methyl-1H-imidazole-4-sulfonamide] | 0.01 to 0.1
24 | CCCOc1cc(OCCCOC)cc(Oc2cc3c(cc2NS(=O)(=O)c2cnn(CC)c2)n(C)c(=O)n3C)c1 [Example 207, 1-ethyl-N-(6-(3-(3-methoxypropoxy)-5-propoxyphenoxy)-1,3-dimethyl-2-oxo-2,3-dihydro-1H-benzo[d]imidazol-5-yl)-1H-pyrazole-4-sulfonamide] | 0.01 to 0.1
25 | Cn1cnc(S(=O)(=O)Nc2cc3c(cc2Oc2cccc(OCCCCN)c2)n(C)c(=O)n3C)c1 [Example 5, N-(6-(3-(4-aminobutoxy)phenoxy)-1,3-dimethyl-2-oxo-2,3-dihydro-1H-benzo[d]imidazol-5-yl)-1-methyl-1H-imidazole-4-sulfonamide] | 0.1 to 1
26 | CCCOc1cc(OCCCCCCO)cc(Oc2cc3c(cc2NS(=O)(=O)c2cccc(C(=O)OC)c2)n(C)c(=O)n3C)c1 [Example 185, methyl 3-(N-(6-(3-((6-hydroxynhexyl)oxy)-5-propoxyphenoxy)-1,3-dimethyl-2-oxo-2,3-dihydro-1H-benzo[d]imidazol-5-yl)sulfamoyl)benzoate] | 0.1 to 1
27 | CCCOc1cc(OCCCOC)cc(Oc2cc3c(cc2NS(=O)(=O)c2cnn(C)c2)n(C)c(=O)n3C)c1 [Example 153, N-(6-(3-(3-methoxypropoxy)-5-propoxyphenoxy)-1,3-dimethyl-2-oxo-2,3-dihydro-1H-benzo[d]imidazol-5-yl)-1-methyl-1H-pyrazole-4-sulfonamide] | 0.01 to 0.1
28 | CCCOc1cc(OCCCCNC)cc(Oc2cc3c(cc2NS(=O)(=O)c2ccc(OC)c(OC)c2)n(C)c(=O)n3C)c1 [Example 249, N-(1,3-dimethyl-6-{3-[4-(methylamino)butoxy]-5-propoxyphenoxy}-2-oxo-2,3-dihydro-1H-1,3-benzodiazol-5-yl)-3,4-dimethoxybenzene-1-sulfonamide] | 0.01 to 0.1

— US20160060260A1, “BROMODOMAIN INHIBITORS FOR TREATING DISEASE” (Board of Regents, The University of Texas System, priority 2014, published 2016)
